The values that follow come from PMC6418145 (Scientific Reports, 2019).

In one test the target is AChE (Homo sapiens, UniProt P22303). To be noted: 10 μM compound, not shown.
The test system of test [1] is 5-HT1B serotonin receptor. The experiment in a line: Off-target radioligand binding. Set-up: species or system human. To be noted: 10 μM compound.
In another test the target is T1, M3 muscarinic receptor (Homo sapiens, UniProt P20309).
T1 construct: expressed in transfected cells; host or cells: HEK-293 or CHO
T1 sequence (P20309 whole entry): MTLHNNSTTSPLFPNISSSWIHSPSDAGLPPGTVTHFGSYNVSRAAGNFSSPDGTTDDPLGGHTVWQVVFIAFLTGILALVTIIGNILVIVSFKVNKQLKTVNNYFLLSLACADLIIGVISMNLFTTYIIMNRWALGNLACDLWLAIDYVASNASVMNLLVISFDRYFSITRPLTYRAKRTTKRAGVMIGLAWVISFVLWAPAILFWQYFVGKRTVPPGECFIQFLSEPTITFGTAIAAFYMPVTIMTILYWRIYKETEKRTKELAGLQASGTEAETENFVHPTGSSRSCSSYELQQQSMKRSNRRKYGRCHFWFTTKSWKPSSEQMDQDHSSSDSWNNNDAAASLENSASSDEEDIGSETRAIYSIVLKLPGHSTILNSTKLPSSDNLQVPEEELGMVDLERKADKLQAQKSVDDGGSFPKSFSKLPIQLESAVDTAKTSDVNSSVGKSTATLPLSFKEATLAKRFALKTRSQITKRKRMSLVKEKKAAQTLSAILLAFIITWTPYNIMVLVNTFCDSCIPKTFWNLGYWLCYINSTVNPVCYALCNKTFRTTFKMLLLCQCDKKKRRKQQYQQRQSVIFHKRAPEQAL
The experiment in a line: Off-target radioligand binding. To be noted: 10 μM compound.

The target of test [2] is T2, 5-HT1A serotonin receptor (Homo sapiens, UniProt P08908).
T2 construct: expressed in transfected cells; host or cells: HEK-293 or CHO
T2 sequence (P08908 whole entry): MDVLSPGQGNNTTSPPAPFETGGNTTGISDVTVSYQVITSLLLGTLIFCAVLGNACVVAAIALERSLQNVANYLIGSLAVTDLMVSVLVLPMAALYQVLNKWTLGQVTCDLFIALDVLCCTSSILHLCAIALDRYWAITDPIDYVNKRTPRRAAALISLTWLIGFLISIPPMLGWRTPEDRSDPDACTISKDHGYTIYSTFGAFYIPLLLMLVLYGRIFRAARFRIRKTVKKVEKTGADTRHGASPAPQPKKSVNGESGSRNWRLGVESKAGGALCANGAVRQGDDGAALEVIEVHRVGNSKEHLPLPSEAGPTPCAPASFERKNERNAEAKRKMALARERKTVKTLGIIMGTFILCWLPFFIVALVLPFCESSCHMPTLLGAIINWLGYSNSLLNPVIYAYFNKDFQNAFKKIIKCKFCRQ
The experiment in a line: Off-target radioligand binding. To be noted: 10 μM compound.

In a further test the target is T3, H1 histamine receptor (Homo sapiens, UniProt P35367).
T3 construct: expressed in transfected cells; host or cells: HEK-293 or CHO
T3 sequence (P35367 whole entry): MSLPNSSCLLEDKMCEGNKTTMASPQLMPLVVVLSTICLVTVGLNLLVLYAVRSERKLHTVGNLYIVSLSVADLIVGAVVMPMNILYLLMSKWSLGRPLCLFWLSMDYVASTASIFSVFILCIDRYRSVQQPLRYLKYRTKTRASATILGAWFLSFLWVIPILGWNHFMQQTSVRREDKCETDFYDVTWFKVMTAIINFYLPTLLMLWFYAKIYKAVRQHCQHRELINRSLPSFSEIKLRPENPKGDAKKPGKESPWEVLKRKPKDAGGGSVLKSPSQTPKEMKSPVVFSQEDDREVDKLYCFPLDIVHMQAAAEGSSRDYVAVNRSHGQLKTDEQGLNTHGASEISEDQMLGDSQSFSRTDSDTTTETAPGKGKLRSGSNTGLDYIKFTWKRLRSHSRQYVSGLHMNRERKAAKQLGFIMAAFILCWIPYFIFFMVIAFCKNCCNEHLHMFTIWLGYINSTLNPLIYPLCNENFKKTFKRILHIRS
The experiment in a line: Off-target radioligand binding.

The target in a further test is PDE3A (Homo sapiens, UniProt Q14432). Description: Off-target enzyme assay. To be noted: 10 μM compound, not shown. Format: biochemical.
PDE3A, sequence (Q14432 whole entry, species assumed): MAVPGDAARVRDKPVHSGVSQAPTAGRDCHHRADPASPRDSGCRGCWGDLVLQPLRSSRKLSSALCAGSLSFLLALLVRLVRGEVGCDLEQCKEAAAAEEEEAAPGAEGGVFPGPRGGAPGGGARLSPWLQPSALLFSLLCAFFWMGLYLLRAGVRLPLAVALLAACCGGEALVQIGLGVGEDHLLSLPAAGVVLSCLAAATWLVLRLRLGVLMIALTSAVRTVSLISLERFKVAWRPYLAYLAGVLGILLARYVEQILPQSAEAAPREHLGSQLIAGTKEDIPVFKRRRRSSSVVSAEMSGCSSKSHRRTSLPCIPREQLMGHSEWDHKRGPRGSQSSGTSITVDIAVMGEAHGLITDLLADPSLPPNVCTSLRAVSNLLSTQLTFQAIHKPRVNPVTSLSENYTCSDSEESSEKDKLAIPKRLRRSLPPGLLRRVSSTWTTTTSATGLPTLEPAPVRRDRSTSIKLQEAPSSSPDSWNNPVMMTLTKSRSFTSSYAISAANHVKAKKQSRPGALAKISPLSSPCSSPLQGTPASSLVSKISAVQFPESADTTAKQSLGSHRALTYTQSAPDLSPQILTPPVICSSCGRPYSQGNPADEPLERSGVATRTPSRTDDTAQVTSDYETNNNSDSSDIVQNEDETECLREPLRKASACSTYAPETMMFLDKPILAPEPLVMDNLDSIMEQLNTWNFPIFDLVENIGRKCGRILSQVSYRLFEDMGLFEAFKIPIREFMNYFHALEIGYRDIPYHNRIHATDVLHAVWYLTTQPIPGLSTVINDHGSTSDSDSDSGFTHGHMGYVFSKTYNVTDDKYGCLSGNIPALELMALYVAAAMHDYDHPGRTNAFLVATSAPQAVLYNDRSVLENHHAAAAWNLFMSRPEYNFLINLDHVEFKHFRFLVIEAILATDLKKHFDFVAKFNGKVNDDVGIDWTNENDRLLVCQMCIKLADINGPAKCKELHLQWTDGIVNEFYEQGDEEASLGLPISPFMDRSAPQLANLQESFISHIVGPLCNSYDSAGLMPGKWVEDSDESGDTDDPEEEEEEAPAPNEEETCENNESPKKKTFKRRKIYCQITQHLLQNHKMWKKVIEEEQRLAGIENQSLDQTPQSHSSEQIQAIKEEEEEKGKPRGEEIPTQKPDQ
The next test has as its target T4, M1 muscarinic receptor (Homo sapiens, UniProt P11229).
T4 construct: expressed in transfected cells; host or cells: HEK-293 or CHO
The experiment in a line: Off-target radioligand binding. To be noted: 10 μM compound.

For the next test, the target named is COX1 (Homo sapiens, UniProt P23219). Description: Off-target enzyme assay. Format: biochemical. To be noted: 10 μM compound, not shown.
COX1, sequence (P23219 24-599): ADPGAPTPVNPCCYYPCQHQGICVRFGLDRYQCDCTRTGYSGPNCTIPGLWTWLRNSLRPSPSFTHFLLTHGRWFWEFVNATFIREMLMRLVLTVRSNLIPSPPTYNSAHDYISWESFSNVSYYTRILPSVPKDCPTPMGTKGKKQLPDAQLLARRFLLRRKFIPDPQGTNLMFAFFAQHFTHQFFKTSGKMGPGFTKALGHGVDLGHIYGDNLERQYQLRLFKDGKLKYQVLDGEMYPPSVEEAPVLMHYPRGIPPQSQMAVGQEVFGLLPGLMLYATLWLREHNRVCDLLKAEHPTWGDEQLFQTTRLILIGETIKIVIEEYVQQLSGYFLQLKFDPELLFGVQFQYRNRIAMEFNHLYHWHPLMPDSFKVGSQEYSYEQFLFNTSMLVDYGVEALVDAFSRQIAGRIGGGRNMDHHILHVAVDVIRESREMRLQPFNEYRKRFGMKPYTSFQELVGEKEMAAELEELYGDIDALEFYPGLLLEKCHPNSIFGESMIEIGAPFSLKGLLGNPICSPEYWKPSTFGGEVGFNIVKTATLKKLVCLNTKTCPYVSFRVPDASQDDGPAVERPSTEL
In the next test the target is T5, M2 muscarinic receptor (Homo sapiens, UniProt P08172).
T5 construct: expressed in transfected cells; host or cells: HEK-293 or CHO
T5 sequence (P08172 whole entry): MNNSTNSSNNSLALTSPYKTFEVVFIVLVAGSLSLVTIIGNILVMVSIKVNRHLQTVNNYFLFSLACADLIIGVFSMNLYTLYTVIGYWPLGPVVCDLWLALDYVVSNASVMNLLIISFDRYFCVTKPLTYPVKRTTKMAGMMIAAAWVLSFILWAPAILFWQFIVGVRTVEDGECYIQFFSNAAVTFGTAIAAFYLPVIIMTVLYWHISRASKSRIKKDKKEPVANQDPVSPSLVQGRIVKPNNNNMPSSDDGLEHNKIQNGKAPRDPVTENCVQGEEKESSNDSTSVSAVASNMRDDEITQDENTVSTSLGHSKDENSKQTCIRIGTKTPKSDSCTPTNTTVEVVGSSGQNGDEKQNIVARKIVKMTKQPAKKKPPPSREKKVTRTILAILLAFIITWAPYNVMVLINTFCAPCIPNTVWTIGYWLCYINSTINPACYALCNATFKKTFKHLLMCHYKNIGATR
Description: Off-target radioligand binding. To be noted: 10 μM compound.

Each structure is given as a SMILES string. pKi: −log10 of the molar value. A value given as a limit tells only on which side of the number the result lay.

AChE, sequence (P22303 32-614): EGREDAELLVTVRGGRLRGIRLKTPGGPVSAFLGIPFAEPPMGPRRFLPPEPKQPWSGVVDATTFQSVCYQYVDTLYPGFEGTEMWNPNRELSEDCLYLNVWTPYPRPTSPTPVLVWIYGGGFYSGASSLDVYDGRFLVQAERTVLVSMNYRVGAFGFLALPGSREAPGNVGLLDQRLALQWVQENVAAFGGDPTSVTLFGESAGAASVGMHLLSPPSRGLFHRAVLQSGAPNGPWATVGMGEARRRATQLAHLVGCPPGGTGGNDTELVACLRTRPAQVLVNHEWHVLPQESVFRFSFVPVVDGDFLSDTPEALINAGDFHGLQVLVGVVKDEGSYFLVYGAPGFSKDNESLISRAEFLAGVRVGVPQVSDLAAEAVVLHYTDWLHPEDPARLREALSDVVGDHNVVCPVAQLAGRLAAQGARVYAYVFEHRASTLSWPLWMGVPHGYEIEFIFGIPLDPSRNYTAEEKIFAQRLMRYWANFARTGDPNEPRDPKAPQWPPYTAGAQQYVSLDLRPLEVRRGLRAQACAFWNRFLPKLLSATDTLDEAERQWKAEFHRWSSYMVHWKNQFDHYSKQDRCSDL
T4 sequence (P11229 whole entry): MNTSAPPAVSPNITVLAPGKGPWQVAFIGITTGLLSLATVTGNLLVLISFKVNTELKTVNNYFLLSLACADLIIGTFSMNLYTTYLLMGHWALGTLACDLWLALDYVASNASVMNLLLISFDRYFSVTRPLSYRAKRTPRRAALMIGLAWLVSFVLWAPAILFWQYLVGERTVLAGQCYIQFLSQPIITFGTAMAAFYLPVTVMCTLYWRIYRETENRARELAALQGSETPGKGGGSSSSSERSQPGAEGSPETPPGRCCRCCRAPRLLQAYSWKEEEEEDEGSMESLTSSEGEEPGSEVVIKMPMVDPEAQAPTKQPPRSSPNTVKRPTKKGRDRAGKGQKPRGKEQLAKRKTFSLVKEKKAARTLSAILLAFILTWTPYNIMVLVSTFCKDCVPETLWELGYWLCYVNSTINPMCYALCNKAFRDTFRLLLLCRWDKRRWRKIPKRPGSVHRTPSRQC
Description for AChE: Receptors and transporters of interest were overexpressed in either human recombinant human embryonic kidney (HEK)-293 or Chinese hamster ovary (CHO) cells. […] Results are expressed as percent inhibition of control-specific binding of the radioactively labelled ligand specific for the respective target. For enzyme inhibition, the effect was calculated as a percent inhibition of control enzyme activity. […] All presented values are the mean of two experiments.

As usually defined, the inhibition is the relative decrease from the control value, in per cent. A high value points to strong suppression. Usually pKi stands for −log10 of the Ki, conventionally taken in molar units. High values mean a small Ki, low ones a large Ki. As to `C[N+]1([O-])CCN(C2=Nc3cc(Cl)ccc3Nc3ccccc32)CC1` [CNO, clozapine-N-oxide], the inhibition at AChE, against PDE3A and on COX1 was under 20% in each case. For the same compound, the “competitive inhibition of ligand binding” value (in test [1]; at M3 muscarinic receptor; in test [2]; on H1 histamine receptor (10 μM compound); on M1 muscarinic receptor; at M2 muscarinic receptor) was “over 50%” in each case. In addition, the pKi on H1 histamine receptor (bound stated in discussion) is over 7.00.
